Test results: patent US12234238B2, “Antimicrobial compounds and methods of making and using the same” (BIOVERSYS AG, priority 2017, dated 2025)

Columns and labels:
[1] = test system: Eschericia coli (E. coli) strain ATCC25922; assay: standard microdilution assay to determine minimum inhibitory concentrations (MICs), E. coli; type: cell-based; conditions: Escherichia coli
Description: (§1) The in vitro activity of the compounds of the present disclosure can be determined. Antimicrobial testing is typically performed to determine the minimum inhibitory concentration (MIC). Minimum inhibitory concentrations (MICs) are determined by the microdilution method in a final volume of 100 μl according to protocols outlined by The Clinical and Laboratory Standards Institute (CLSI). Performance standards for reference strains are assessed within the same experimental design to maintain quality control. See, for example, Clinical Laboratory Standards Institute: Methods for dilution antimicrobial susceptibility tests for bacteria that grow aerobically M7-A8. Approved Standard-Eighth Edition. Wayne, PA: CLSI; December 2008: and Clinical Laboratory Standards Institute: Performance Standards for Antimicrobial Susceptibility Testing M100-S20; Approved Standard-Twentieth Edition. Wayne, PA: CLSI; June 2010. The compounds of the present disclosure were tested for antimicrobial activity. The Compounds 1-122 were run against Eschericia coli (E. coli) strain ATCC25922 and against Staphylococcus aureus (S. aureus) 11540 strain using a standard microdilution assay to determine minimum inhibitory concentrations (MICs). […] It will be recognized by one skilled in the art that the compounds can be assessed against other bacterial organisms and that the presentation of data for activity against Eschericia coli and Staphylococcus aureus are illustrative and in no way is intended to limit the scope of the present disclosure. The compounds of the present disclosure can be assayed against a range of other microorganisms depending upon the performance activity desired to be gathered. Furthermore, the “+” and “−” representation and the selection of a cutoff value of 16 micrograms/mL is also illustrative and in no way is intended to limit the scope of the present disclosure.

[2] = test system: Staphylococcus aureus (S. aureus) 11540 strain; assay: standard microdilution assay to determine minimum inhibitory concentrations (MICs), S. aureus; type: cell-based
Description: as §1

MIC [1]	MIC [2]	SMILES
≤ 16 mg/L	≤ 16 mg/L	C=CCN1[C@H](CCSC(=N)N)CCC[C@H]1c1ccc(-n2cc3cc(-c4cc(CCC[C@H](C)N)cc(Cl)c4F)[nH]c3nc2=O)cc1 [Compound 46]
≤ 16 mg/L	≤ 16 mg/L	C[C@H](N)CCO[C@H]1CNC(c2cc3cn(-c4ccc([C@@H]5CCC[C@@H](CCSC(=N)N)N5)cc4)c(=O)nc3[nH]2)C1 (stereo partly shown) [Compound 47]
≤ 16 mg/L	≤ 16 mg/L	N=C(N)SCC[C@@H]1CCC[C@@H](c2ccc(-n3cc4cc(C5C[C@@H](OCc6ccccc6)CN5)[nH]c4nc3=O)cc2)N1 (stereo partly shown) [Compound 49]
≤ 16 mg/L	≤ 16 mg/L	C=C[C@H](N)CCCc1cc(Cl)c(F)c(-c2cc3cn(-c4ccc([C@@H]5CCC[C@@H](CCSC(=N)N)N5C)cc4)c(=O)nc3[nH]2)c1 [Compound 50]
≤ 16 mg/L	≤ 16 mg/L	N=C(N)SCC[C@@H]1CCC[C@@H](c2ccc(-n3cc4cc(C5C[C@H]6CCCC[C@@H]6N5)[nH]c4nc3=O)cc2)N1 (stereo partly shown) [Compound 51]
≤ 16 mg/L	≤ 16 mg/L	C[C@H](N)CCCc1cc(Cl)c(F)c(-c2cc3cn(-c4ccc([C@@H]5CCCC[C@@H](CCSC(=N)N)N5)cc4)c(=O)nc3[nH]2)c1 [Compound 52]
≤ 16 mg/L	≤ 16 mg/L	C[C@H](N)CCCN1C(c2cc3cn(-c4ccc([C@@H]5CCC[C@@H](CCSC(=N)N)N5)cc4)c(=O)nc3[nH]2)C[C@H]2CCCC[C@@H]21 (stereo partly shown) [Compound 53]
≤ 16 mg/L	≤ 16 mg/L	CC(N)c1cc(Cl)c(F)c(-c2cc3cn(-c4ccc([C@@H]5CCC[C@@H](CCSC(=N)N)N5)cc4)c(=O)nc3[nH]2)c1 (stereo partly shown) [Compound 54]
≤ 16 mg/L	≤ 16 mg/L	CCCN1[C@H](CCSC(=N)N)CCC[C@H]1c1ccc(-n2cc3cc(-c4cc(CCC[C@H](C)N)cc(Cl)c4F)[nH]c3nc2=O)cc1 [Compound 56]
≤ 16 mg/L	≤ 16 mg/L	CO[C@@H]1CC(c2cc3cn(-c4ccc([C@@H]5CCC[C@@H](CCSC(=N)N)N5)cc4)c(=O)nc3[nH]2)N(CCC[C@H](C)N)C1 (stereo partly shown) [Compound 57]
≤ 16 mg/L	≤ 16 mg/L	C[C@H](N)CCCN1C=C(c2cc3cn(-c4ccc([C@@H]5CCC[C@@H](CCSC(=N)N)N5)cc4)c(=O)nc3[nH]2)CCC1 [Compound 58]
≤ 16 mg/L	≤ 16 mg/L	C[C@H](N)CCCc1cc(Cl)c(F)c(-c2cc3cn(-c4ccc([C@@H]5CCC=C[C@@H](CCSC(=N)N)N5)cc4)c(=O)nc3[nH]2)c1 [Compound 59]
≤ 16 mg/L	≤ 16 mg/L	C[C@@H]1CNC(c2cc3cn(-c4ccc([C@@H]5CCC[C@@H](CCSC(=N)N)N5)cc4)c(=O)nc3[nH]2)C1 (stereo partly shown) [Compound 61]
≤ 16 mg/L	≤ 16 mg/L	C[C@H](N)CCCN1C(c2cc3cn(-c4ccc([C@@H]5CCC[C@@H](CCSC(=N)N)N5)cc4)c(=O)nc3[nH]2)C[C@@H]2CCCC[C@@H]21 (stereo partly shown) [Compound 62]
≤ 16 mg/L	≤ 16 mg/L	C[C@@H](N)CCCN1C[C@H](OCc2ccccc2)CC1c1cc2cn(-c3ccc([C@@H]4CCC[C@@H](CCSC(=N)N)N4)cc3)c(=O)nc2[nH]1 (stereo partly shown) [Compound 63]
≤ 16 mg/L	≤ 16 mg/L	C[C@@H](N)CCCN1C[C@@H](O)CC1c1cc2cn(-c3ccc([C@@H]4CCC[C@@H](CCSC(=N)N)N4)cc3)c(=O)nc2[nH]1 (stereo partly shown) [Compound 64]
≤ 16 mg/L	≤ 16 mg/L	C[C@@H](N)CCCN1C[C@H](N)CC1c1cc2cn(-c3ccc([C@@H]4CCC[C@@H](CCSC(=N)N)N4)cc3)c(=O)nc2[nH]1 (stereo partly shown) [Compound 65]
≤ 16 mg/L	≤ 16 mg/L	CN[C@@H]1CC(c2cc3cn(-c4ccc([C@@H]5CCC[C@@H](CCSC(=N)N)N5)cc4)c(=O)nc3[nH]2)N(CCC[C@@H](C)N)C1 (stereo partly shown) [Compound 66]
≤ 16 mg/L	≤ 16 mg/L	C[C@H]1CC(c2cc3cn(-c4ccc([C@@H]5CCC[C@@H](CCSC(=N)N)N5)cc4)c(=O)nc3[nH]2)N(CCC[C@@H](C)N)C1 (stereo partly shown) [Compound 67]
≤ 16 mg/L	≤ 16 mg/L	C[C@@H](N)CCCN1C[C@H](F)CC1c1cc2cn(-c3ccc([C@@H]4CCC[C@@H](CCSC(=N)N)N4)cc3)c(=O)nc2[nH]1 (stereo partly shown) [Compound 69]
≤ 16 mg/L	≤ 16 mg/L	C[C@@H](N)CCCN1CC(F)(F)CC1c1cc2cn(-c3ccc([C@@H]4CCC[C@@H](CCSC(=N)N)N4)cc3)c(=O)nc2[nH]1 (stereo partly shown) [Compound 71]
≤ 16 mg/L	≤ 16 mg/L	C[C@H](N)CCCN1CCC=C(c2cc3cn(-c4ccc([C@@H]5CCC[C@@H](CCSC(=N)N)N5)cc4)c(=O)nc3[nH]2)C1 [Compound 73]

MIC [1]	MIC [2]	SMILES
≤ 16 mg/L	≤ 16 mg/L	C[C@@H](N)CCCN1CC(C)(C)CC1c1cc2cn(-c3ccc([C@@H]4CCC[C@@H](CCSC(=N)N)N4)cc3)c(=O)nc2[nH]1 (stereo partly shown) [Compound 74]
≤ 16 mg/L	≤ 16 mg/L	C[C@H](N)CCCN1CC=C(c2cc3cn(-c4ccc([C@@H]5CCC[C@@H](CCSC(=N)N)N5)cc4)c(=O)nc3[nH]2)C1 [Compound 75]
≤ 16 mg/L	≤ 16 mg/L	C[C@@H](N)CCCN1C[C@H](Cc2ccccc2)CC1c1cc2cn(-c3ccc([C@@H]4CCC[C@@H](CCSC(=N)N)N4)cc3)c(=O)nc2[nH]1 (stereo partly shown) [Compound 76]
≤ 16 mg/L	> 16 mg/L	C[C@@H](N)CCCN1C(c2cc3cn(-c4ccc([C@@H]5CCC[C@@H](CCSC(=N)N)N5)cc4)c(=O)nc3[nH]2)CC[C@@H]1c1ccccc1 (stereo partly shown) [Compound 77]
≤ 16 mg/L	≤ 16 mg/L	CC(C[C@@H]1CCC[C@@H](c2ccc(-n3cc4cc(-c5cc(CCC[C@H](C)N)cc(Cl)c5F)[nH]c4nc3=O)cc2)N1)SC(=N)N (stereo partly shown) [Compound 78]
≤ 16 mg/L	≤ 16 mg/L	COC[C@H](N)CCCc1cc(Cl)c(F)c(-c2cc3cn(-c4ccc([C@@H]5CCC[C@@H](CCSC(=N)N)N5)cc4)c(=O)nc3[nH]2)c1 [Compound 80]
≤ 16 mg/L	≤ 16 mg/L	C[C@@H](N)CCCN1C[C@H](CO)CC1c1cc2cn(-c3ccc([C@@H]4CCC[C@@H](CCSC(=N)N)N4)cc3)c(=O)nc2[nH]1 (stereo partly shown) [Compound 81]
≤ 16 mg/L	≤ 16 mg/L	CCc1cc(CCC[C@H](C)N)cc(-c2cc3cn(-c4ccc([C@@H]5CCC[C@@H](CCSC(=N)N)N5)cc4)c(=O)nc3[nH]2)c1Cl [Compound 82]
≤ 16 mg/L	≤ 16 mg/L	CN[C@H]1CNC(c2cc3cn(-c4ccc([C@@H]5CCC[C@@H](CCSC(=N)N)N5)cc4)c(=O)nc3[nH]2)C1 (stereo partly shown) [Compound 83]
≤ 16 mg/L	≤ 16 mg/L	CC(C)c1cc(CCC[C@H](C)N)cc(-c2cc3cn(-c4ccc([C@@H]5CCC[C@@H](CCSC(=N)N)N5)cc4)c(=O)nc3[nH]2)c1F [Compound 84]
≤ 16 mg/L	≤ 16 mg/L	CCc1cc(CCC[C@H](C)N)cc(-c2cc3cn(-c4ccc([C@@H]5CCC[C@@H](CCSC(=N)N)N5)cc4)c(=O)nc3[nH]2)c1F [Compound 85]
≤ 16 mg/L	≤ 16 mg/L	C[C@H](N)CCCc1cc(-c2cc3cn(-c4ccc([C@@H]5CCC[C@@H](CCSC(=N)N)N5)cc4)c(=O)nc3[nH]2)cc(C(C)(C)C)c1 [Compound 86]
≤ 16 mg/L	≤ 16 mg/L	CCc1cc(CCC[C@H](C)N)cc(-c2cc3cn(-c4ccc([C@@H]5CCC[C@@H](CCSC(=N)N)N5)cc4)c(=O)nc3[nH]2)c1 [Compound 87]
≤ 16 mg/L	≤ 16 mg/L	N=C(N)SCC[C@@H]1CCC[C@@H](c2ccc(-n3cc4cc(C5C[C@@H](N)CN5)[nH]c4nc3=O)cc2)N1 (stereo partly shown) [Compound 88]
≤ 16 mg/L	≤ 16 mg/L	C[C@H](N)CCCc1cc(-c2cc3cn(-c4ccc([C@@H]5CCC[C@@H](CCSC(=N)N)N5)cc4)c(=O)nc3[nH]2)cc(C(C)(F)F)c1 [Compound 89]
≤ 16 mg/L	≤ 16 mg/L	CC(C)CN1[C@H](CCSC(=N)N)CCC[C@H]1c1ccc(-n2cc3cc(-c4cc(CCC[C@H](C)N)cc(Cl)c4F)[nH]c3nc2=O)cc1 [Compound 90]
≤ 16 mg/L	≤ 16 mg/L	CSCCN1[C@H](CCSC(=N)N)CCC[C@H]1c1ccc(-n2cc3cc(-c4cc(CCC[C@H](C)N)cc(Cl)c4F)[nH]c3nc2=O)cc1 [Compound 91]
≤ 16 mg/L	≤ 16 mg/L	CC(=O)c1cc(CCC[C@H](C)N)cc(-c2cc3cn(-c4ccc([C@@H]5CCC[C@@H](CCSC(=N)N)N5)cc4)c(=O)nc3[nH]2)c1 [Compound 92]
≤ 16 mg/L	≤ 16 mg/L	C[C@H](N)CCCc1cc(-c2cc3cn(-c4ccc([C@@H]5CCC[C@@H](CCSC(=N)N)N5)cc4)c(=O)nc3[nH]2)cc2c1CCCC2 [Compound 93]
≤ 16 mg/L	≤ 16 mg/L	C=CCCN1[C@H](CCSC(=N)N)CCC[C@H]1c1ccc(-n2cc3cc(-c4cc(CCC[C@H](C)N)cc(Cl)c4F)[nH]c3nc2=O)cc1 [Compound 94]
≤ 16 mg/L	≤ 16 mg/L	CC(Br)CCN1[C@H](CCSC(=N)N)CCC[C@H]1c1ccc(-n2cc3cc(-c4cc(CCC[C@H](C)N)cc(Cl)c4F)[nH]c3nc2=O)cc1 (stereo partly shown) [Compound 95]
≤ 16 mg/L	≤ 16 mg/L	COC(=O)CN1[C@H](CCSC(=N)N)CCC[C@H]1c1ccc(-n2cc3cc(-c4cc(CCC[C@H](C)N)cc(Cl)c4F)[nH]c3nc2=O)cc1 [Compound 96]
